Test results from patent US20260234115A1, “LIPID COMPOUNDS, COMPOSITIONS, AND USES THEREOF” (Liberate Bio, Inc., priority 2023, published 2026).
Marks after values point to notes of the source that are not given here.

Test system: mouse organs
Assay: In vivo activity screening in mice: organ mean total flux (p/s) of luciferase activity after injection of F2 LNP pools (Table 6, FIG. 7A-7C)
Settings: luciferase mRNA
Method: Small rodent biodistribution studies were performed in mice (e.g., C57BL/6J, Balb-c, CD-1, etc.). For evaluating LNP biodistribution and tissue activity upon systemic administration, C57BL/6J mice received dose administration by single intravenous injection via tail vein with LNP formulations (individual or pooled) in PBS, at different dose (0.25-3 mg/kg) levels of firefly luciferase mRNA. At predetermined time points (4-6 hours post-injection), the animals were anesthetized via isoflurane and subjected to in-life imaging sessions for bioluminescence using an In Vivo Imaging System (IVIS). All animals were dosed with D-Luciferin at 15 mg/mL via subcutaneous (SC) injection at 0.2 mL/animal. Animals had their abdomen hair shaved using an animal trimmer. They were then placed so their shaved belly faced up toward the IVIS camera. Whole body imaging sessions were performed 10-15 minutes following D-Luciferin administration.
For in detail organ distribution and activity of LNP formulations, ex vivo imaging sessions were also performed. All animals received SC D-Luciferin and were then euthanized by isoflurane overdose, followed by cardiac perfusion with saline. Following perfusion, the organs were collected and subjected to IVIS imaging for luminescence within 10-15 minutes of D-Luciferin injection.
All IVIS images were processed with a computer software to identify the regions of interests for individual organs to detect the total flux (p/s) values as luminescence quantification. Then the total flux values were graphed to evaluate the in vivo activity in each collected organ.
Small rodent biodistribution studies were performed in mice according to the General Study Protocols in Example 3(a). LNPs incorporating lipid compounds were prepared in Formulation F2, with MC3 as lipid compound (Cayman Chemical) prepared using Formulation F2 for comparison. LNP pools (with firefly luciferase mRNA encapsulated) were injected into mice at varying doses, and organ mean total flux (p/s) results (measuring luciferase activity) were then collected according to Example 3(a).
LNPs comprising MC3 used as a control and for cross-mouse comparison. Dose is in mg/kg; LC is Lipid Compound according to Table 1.
Additional screening results for Compounds 7, 13, 14, 26, 33, 38, 39, 40, 48, 60, 61, 89, 103, and 109 in spleen, femur, and muscle are shown in FIG. 7A, FIG. 7B, and FIG. 7C, with MC3 as a used as a control for comparison.

Row | SMILES | Organ Mean Total Flux Femur (Mouse 11, dose 0.5 mg/kg) | Organ Mean Total Flux Heart (Mouse 11, dose 0.5 mg/kg) | Organ Mean Total Flux Kidney (Mouse 11, dose 0.5 mg/kg) | Organ Mean Total Flux Liver (Mouse 11, dose 0.5 mg/kg) | Organ Mean Total Flux Lung (Mouse 11, dose 0.5 mg/kg) | Organ Mean Total Flux Muscle (Mouse 11, dose 0.5 mg/kg) | Organ Mean Total Flux Pancreas (Mouse 11, dose 0.5 mg/kg) | Organ Mean Total Flux Spleen (Mouse 11, dose 0.5 mg/kg) | Organ Mean Total Flux Femur (Mouse 5, dose 0.5 mg/kg) | Organ Mean Total Flux Heart (Mouse 5, dose 0.5 mg/kg) | Organ Mean Total Flux Kidney (Mouse 5, dose 0.5 mg/kg) | Organ Mean Total Flux Liver (Mouse 5, dose 0.5 mg/kg) | Organ Mean Total Flux Lung (Mouse 5, dose 0.5 mg/kg) | Organ Mean Total Flux Muscle (Mouse 5, dose 0.5 mg/kg) | Organ Mean Total Flux Pancreas (Mouse 5, dose 0.5 mg/kg) | Organ Mean Total Flux Spleen (Mouse 5, dose 0.5 mg/kg) | other results
1 | CCCCCCCCC(C)OC(=O)CCCCCCC(=O)OCC(COC(=O)CCCCCCC(=O)OC(C)CCCCCCCC)(COC(=O)CCCCCCC(=O)OC(C)CCCCCCCC)COC(=O)CCC(CCCCCC)OC(=O)NCCN1CCCC1 (centres unmarked) [Compound 39, O1-[2,2-bis[[8-(1-methylnonoxy)-8-oxo-octanoyl]oxymethyl]-3-[4-(2-pyrrolidin-1-ylethylcarbamoyloxy)decanoyloxy]propyl]O8-(1-methylnonyl) octanedioate] | 2.6 p/s (×10^6) | 6.5 p/s (×10^6) | 2.3 p/s (×10^6) | 3390 p/s (×10^6) | 19.6 p/s (×10^6) | 11.0 p/s (×10^6) | 1.1 p/s (×10^6) | 2.9 p/s (×10^6) | – | – | – | – | – | – | – | – | –
2 | CCCCCCCCC(C)OC(=O)CCCCCC(=O)OCC(COC(=O)CCCCCC(=O)OC(C)CCCCCCCC)(COC(=O)CCCCCC(=O)OC(C)CCCCCCCC)COC(=O)CCC(CCCCCC)OC(=O)NCCN1CCCC1 (centres unmarked) [Compound 40, O1-[2,2-bis[[7-(1-methylnonoxy)-7-oxo-heptanoyl]oxymethyl]-3-[4-(2-pyrrolidin-1-ylethylcarbamoyloxy)decanoyloxy]propyl]O7-(1-methylnonyl)heptanedioate] | – | – | – | – | – | – | – | – | – | – | – | – | – | – | – | – | Organ Mean Total Flux Femur (Mouse 6, dose 0.5 mg/kg): 10.9 p/s (×10^6); Organ Mean Total Flux Heart (Mouse 6, dose 0.5 mg/kg): 6.0 p/s (×10^6); Organ Mean Total Flux Kidney (Mouse 6, dose 0.5 mg/kg): 5.1 p/s (×10^6); Organ Mean Total Flux Liver (Mouse 6, dose 0.5 mg/kg): 3230 p/s (×10^6); Organ Mean Total Flux Lung (Mouse 6, dose 0.5 mg/kg): 27.7 p/s (×10^6); Organ Mean Total Flux Muscle (Mouse 6, dose 0.5 mg/kg): 34.4 p/s (×10^6); Organ Mean Total Flux Pancreas (Mouse 6, dose 0.5 mg/kg): 4.6 p/s (×10^6); Organ Mean Total Flux Spleen (Mouse 6, dose 0.5 mg/kg): 6.4 p/s (×10^6)
3 | CCCCCCCCCC(C)OC(=O)CCCCCCC(=O)OCC(COC(=O)CCCCCCC(=O)OC(C)CCCCCCCCC)(COC(=O)CCCCCCC(=O)OC(C)CCCCCCCCC)COC(=O)CCC(CCCCCC)OC(=O)NCCN1CCCC1 (centres unmarked) [Compound 41, O1-[2,2-bis[[8-(1-methyldecoxy)-8-oxo-octanoyl]oxymethyl]-3-[4-(2-pyrrolidin-1-ylethylcarbamoyloxy)decanoyloxy]propyl]O8-(1-methyldecyl) octanedioate] | – | – | – | – | – | – | – | – | 3.8 p/s (×10^6) | 2.2 p/s (×10^6) | 2.8 p/s (×10^6) | 3493 p/s (×10^6) | 18.0 p/s (×10^6) | 10.0 p/s (×10^6) | 0.8 p/s (×10^6) | 2.5 p/s (×10^6) | –
4 | CCCCCCCCCC(C)OC(=O)CCCCCC(=O)OCC(COC(=O)CCCCCC(=O)OC(C)CCCCCCCCC)(COC(=O)CCCCCC(=O)OC(C)CCCCCCCCC)COC(=O)CCC(CCCCCC)OC(=O)NCCN1CCCC1 (centres unmarked) [Compound 42, O1-[2,2-bis[[7-(1-methyldecoxy)-7-oxo-heptanoyl]oxymethyl]-3-[4-(2-pyrrolidin-1-ylethylcarbamoyloxy)decanoyloxy]propyl]O7-(1-methyldecyl) heptanedioate] | – | – | – | – | – | – | – | – | 6.2 p/s (×10^6) | 1.7 p/s (×10^6) | 1.9 p/s (×10^6) | 1778 p/s (×10^6) | 13.4 p/s (×10^6) | 25.8 p/s (×10^6) | 1.8 p/s (×10^6) | 4.5 p/s (×10^6) | –
5 | CCCC/C=C\CCOC(=O)CCCCCCC(=O)OCC(COC(=O)CCCCCCC(=O)OCC/C=C\CCCC)(COC(=O)CCCCCCC(=O)OCC/C=C\CCCC)COC(=O)CCC(CCCCCC)OC(=O)NCCN1CCCC1 (centres unmarked) [Compound 43, O8-[2,2-bis[[8-[(Z)-oct-3-enoxy]-8-oxo-octanoyl]oxymethyl]-3-[4-(2-pyrrolidin-1-ylethylcarbamoyloxy)decanoyloxy]propyl]O1-[(Z)-oct-3-enyl]octanedioate] | – | – | – | – | – | – | – | – | 3.1 p/s (×10^6) | 0.7 p/s (×10^6) | 1.6 p/s (×10^6) | 669.3 p/s (×10^6) | 12.8 p/s (×10^6) | 8.0 p/s (×10^6) | 2.0 p/s (×10^6) | 9.5 p/s (×10^6) | –
6 | CCCC/C=C\CCOC(=O)CCCCCC(=O)OCC(COC(=O)CCCCCC(=O)OCC/C=C\CCCC)(COC(=O)CCCCCC(=O)OCC/C=C\CCCC)COC(=O)CCC(CCCCCC)OC(=O)NCCN1CCCC1 (centres unmarked) [Compound 44, O7-[2,2-bis[[7-[(Z)-oct-3-enoxy]-7-oxo-heptanoyl]oxymethyl]-3-[4-(2-pyrrolidin-1-ylethylcarbamoyloxy)decanoyloxy]propyl]O1-[(Z)-oct-3-enyl]heptanedioate] | 5.6 p/s (×10^6) | 0.7 p/s (×10^6) | 1.3 p/s (×10^6) | 415.7 p/s (×10^6) | 6.5 p/s (×10^6) | 22.6 p/s (×10^6) | 3.1 p/s (×10^6) | 36.0 p/s (×10^6) | – | – | – | – | – | – | – | – | –
7 | CCCCC/C=C\CCCOC(=O)CCCCCC(=O)OCC(COC(=O)CCCCCC(=O)OCCC/C=C\CCCCC)(COC(=O)CCCCCC(=O)OCCC/C=C\CCCCC)COC(=O)CCC(CCCCCC)OC(=O)NCCN1CCCC1 (centres unmarked) [Compound 45, O7-[2,2-bis[[7-[(Z)-dec-4-enoxy]-7-oxo-heptanoyl]oxymethyl]-3-[4-(2-pyrrolidin-1ylethylcarbamoyloxy)decanoyloxy]propyl]O1-[(Z)-dec-4-enyl]heptanedioate] | 1.0 p/s (×10^6) | 1.1 p/s (×10^6) | 0.9 p/s (×10^6) | 809.3 p/s (×10^6) | 7.2 p/s (×10^6) | 5.6 p/s (×10^6) | 0.5 p/s (×10^6) | 6.0 p/s (×10^6) | – | – | – | – | – | – | – | – | –
